US20240285571A1, “METHODS OF TREATING BONE INFECTIONS” (MICROBION CORPORATION, priority 2020, published 2024)
In brackets after ≈: the same amount, converted by molar mass. Like-named read-outs stand apart in the source and are kept apart here. Values belong to the compound of their own block, whether it stands above or below them.

Tests used:
Assay type in all cases: cell-based
Escherichia coli = assay: Broth microdilution MIC (Example 6); conditions: Escherichia coli, read-out: MIC
Experimental: (§1) Test Compounds: The test agents BisEDT (MB-1-B3; Lot No. ED268-1-11-01), MB-2B, and MB-6 were stored at room temperature, in the dark, until assayed.
(§2) For testing daptomycin, calcium was supplemented with […] Ca^2+, resulting in a final concentration of […] Ca^2+ (2, 3).
(§3) MIC Assay Procedure: MIC values were determined using a broth microdilution procedure described by CLSI (2, 3).
(§4) The Biomek 2000 was then used to make 2-fold serial dilutions in the mother plates from column 1 through column 11. The wells of column 12 contained no drug and served as the organism growth control wells for the assay.
(§5) The test panels were prepared on the Biomek FX instrument which transferred 2 μL of drug solution from each well of a mother plate to the corresponding well of each daughter plate in a single step.
(§6) A standardized inoculum of each test organism was prepared per CLSI methods to equal a 0.5 McFarland standard, followed by a dilution of 1:20. The plates were then inoculated with 10 μL of the diluted inoculum using the Biomek 2000 from low to high drug concentration resulting in a final concentration of approximately 5×10^5 CFU/mL.
(§7) Plates were stacked 3-4 high, covered with a lid on the top plate, placed into plastic bags, and incubated at 35° C. for 16 to 20 hr (vancomycin was read for S. aureus after 24 hr incubation time). The MIC was recorded as the lowest concentration of drug that inhibited visible growth of the organism.

Klebsiella pneumoniae = assay: Broth microdilution MIC (Example 6); conditions: Klebsiella pneumoniae, read-out: MIC
Experimental: as §1, §2, §3, §4, §5, §6, §7

Pseudomonas aeruginosa = assay: Broth microdilution MIC (Example 6); conditions: Pseudomonas aeruginosa, read-out: MIC
Experimental: as §1, §2, §3, §4, §5, §6, §7

Acinetobacter baumannii = assay: Broth microdilution MIC (Example 6); conditions: Acinetobacter baumannii
Procedure, shortened: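 CLSI broth microdilution in cation-adjusted Mueller Hinton broth, test agents 0.06-64 μg/mL from DMSO stocks, inoculum approx. 5×10^5 CFU/mL. Incubation 35° C for 16–20 hr; MIC taken as lowest concentration inhibiting visible growth.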

[1] = system: relevant ATCC QC organisms; assay: Broth microdilution MIC, QC (Example 6)
Experimental: Test Compounds: The test agents BisEDT (MB-1-B3; Lot No. ED268-1-11-01), MB-2B, and MB-6 were stored at room temperature, in the dark, until assayed. The solvent and diluent for the test agents was DMSO (Sigma; St. Louis, MO; Lot No. SHBB9319V) and the prepared stock concentration was 6,464 μg/mL (101× the final test concentration).
Test compounds were evaluated at a concentration range of 0.06-64 μg/mL. For Gram-negative test isolates, amikacin and ceftazidime (alone and with clavulanate at a fixed concentration of 4 μg/mL) were evaluated over a concentration range of 0.06-64 μg/mL; meropenem and levofloxacin were evaluated over a concentration range of 0.008-8 μg/mL. For the testing of S. aureus, clindamycin, daptomycin, levofloxacin and vancomycin were evaluated at a concentration range of 0.008-8 μg/mL; linezolid was tested from 0.03-32 μg/mL.
Organisms: The test organisms as shown in Tables 11-15 consisted of clinical isolates from the Micromyx (MMX) repository and reference strains from the American Type Culture Collection (ATCC; Manassas, VA), National Collection of Type Cultures (NCTC; Public Health England, Salisbury, UK), the Network on Antimicrobial Resistance in Staphylococcus aureus (NARSA; BEI Resources, Manassas, VA), and the Centers for Disease Control and Prevention (CDC; Atlanta, GA). The test organisms were maintained frozen at −80° C. Prior to testing, the isolates were cultured on Tryptic Soy Agar with 5% sheep blood (BAP; Becton Dickson [BD]/BBL; Sparks, MD; Lot Nos. 9080650 and 9108563) at 35° C. Relevant ATCC quality control (QC) organisms (Table 16) were included during testing in accordance with CLSI guidelines (3). Further details on the genetic characterization of the isolates where available can be found in Table 17.
Media: Cation-adjusted Mueller Hinton broth (CAMHB; BD; Lot No. 8190586) was used as the medium for testing (2, 3). For testing daptomycin, calcium was supplemented with […] Ca^2+, resulting in a final concentration of […] Ca^2+ (2, 3).
MIC Assay Procedure: MIC values were determined using a broth microdilution procedure described by CLSI (2, 3). Automated liquid handlers (Multidrop 384, Labsystems, Helsinki, Finland; Biomek 2000 and Biomek F X, Beckman Coulter, Fullerton CA) were used to conduct serial dilutions and liquid transfers.
To prepare the drug mother plates, which would provide the serial drug dilutions for the replicate daughter plates, the wells of columns 2 through 12 of standard 96-well microdilution plates (Costar 3795) were filled with 150 μl of the appropriate diluent for each row of drug. The test articles and comparator compounds (300 μl at 101× the highest concentration to be tested) were dispensed into the appropriate wells in column 1. The Biomek 2000 was then used to make 2-fold serial dilutions in the mother plates from column 1 through column 11. The wells of column 12 contained no drug and served as the organism growth control wells for the assay.
The daughter plates were loaded with 190 μL per well of RPMI using the Multidrop 384. The test panels were prepared on the Biomek FX instrument which transferred 2 μL of drug solution from each well of a mother plate to the corresponding well of each daughter plate in a single step.
as §6, §7

[2] = ATCC35218, E. coli ATCC 35218, ESBL
[3] = K. pneumoniae CDC 135, ESBL/VIM
[4] = P. aeruginosa isolate CDC 241, β-lactamase type IMP/OXA

MIC (Escherichia coli; [2]): 1 µg/mL (≈ 1.71 µM) | MIC (Escherichia coli; ATCCBAA2471, E. coli ATCC BAA-2471, NDM): 64 µg/mL (≈ 109 µM) | MIC (Escherichia coli; E. coli CDC 114, ESBL/KPC): 1 µg/mL (≈ 1.71 µM) | MIC (Escherichia coli; E. coli CDC 118, ESBL/NDM): > 64 µg/mL | MIC (Escherichia coli; E. coli CDC 435, NDM): > 64 µg/mL | MIC (Escherichia coli; E. coli CDC 451, KPC): 4 µg/mL (≈ 6.83 µM) | MIC (Escherichia coli; E. coli CDC 503, ESBL/NDM): > 64 µg/mL | MIC (Escherichia coli; E. coli MMX 5745, KPC): 0.5 µg/mL (≈ 0.854 µM) | MIC (Escherichia coli; E. coli MMX 5755, ESBL): 16 µg/mL (≈ 27.3 µM) | MIC (Escherichia coli; E. coli MMX 5756, ESBL): 64 µg/mL (≈ 109 µM) | MIC (Escherichia coli; E. coli MMX 5758, ESBL): 1 µg/mL (≈ 1.71 µM) | MIC (Klebsiella pneumoniae; ATCCBAA1705, K. pneumoniae ATCC BAA-1705, ESBL/KPC): 16 µg/mL (≈ 27.3 µM) | MIC (Klebsiella pneumoniae; K. pneumoniae CDC 112, KPC): 16 µg/mL (≈ 27.3 µM) | MIC (Klebsiella pneumoniae; K. pneumoniae CDC 113, ESBL/KPC): 16 µg/mL (≈ 27.3 µM) | MIC (Klebsiella pneumoniae; K. pneumoniae CDC 115, ESBL/KPC): 0.5 µg/mL (≈ 0.854 µM) | MIC (Klebsiella pneumoniae; K. pneumoniae CDC 120, ESBL/KPC): 16 µg/mL (≈ 27.3 µM) | MIC (Klebsiella pneumoniae; K. pneumoniae CDC 126, ESBL/KPC): 2 µg/mL (≈ 3.42 µM) | MIC (Klebsiella pneumoniae; K. pneumoniae CDC 129, ESBL/KPC): 32 µg/mL (≈ 54.6 µM) | MIC (Klebsiella pneumoniae; [3]): 16 µg/mL (≈ 27.3 µM) | MIC (Klebsiella pneumoniae; K. pneumoniae CDC 138, ESBL/NDM): > 64 µg/mL | MIC (Klebsiella pneumoniae; K. pneumoniae CDC 158, ESBL/NDM/OXA): 2 µg/mL (≈ 3.42 µM) | MIC (Klebsiella pneumoniae; K. pneumoniae MMX 9029, ESBL): 0.5 µg/mL (≈ 0.854 µM) | MIC (Pseudomonas aeruginosa; P. aeruginosa isolate CDC 230, β-lactamase type VIM/OXA): > 64 µg/mL | MIC (Pseudomonas aeruginosa; P. aeruginosa isolate CDC 231, β-lactamase type KPC/OXA): 8 µg/mL (≈ 13.7 µM) | MIC (Pseudomonas aeruginosa; [4]): 32 µg/mL (≈ 54.6 µM) | MIC (Pseudomonas aeruginosa; P. aeruginosa isolate CDC 246, β-lactamase type NDM/OXA): > 64 µg/mL | MIC (Pseudomonas aeruginosa; P. aeruginosa isolate CDC 250, β-lactamase type NDM/OXA): > 64 µg/mL | MIC (Pseudomonas aeruginosa; P. aeruginosa isolate CDC 356, β-lactamase type KPC): 2 µg/mL (≈ 3.42 µM) | MIC (Pseudomonas aeruginosa; P. aeruginosa isolate CDC 439, β-lactamase type IMP): > 64 µg/mL | MIC (Pseudomonas aeruginosa; P. aeruginosa isolate CDC 444, β-lactamase type VIM): > 64 µg/mL | MIC (Pseudomonas aeruginosa; P. aeruginosa isolate CDC 457, β-lactamase type VIM): 2 µg/mL (≈ 3.42 µM) | MIC (Pseudomonas aeruginosa; P. aeruginosa isolate CDC 516, β-lactamase type KPC/AmpC): 2 µg/mL (≈ 3.42 µM) | MIC (Acinetobacter baumannii; A. baumannii isolate CDC 273, β-lactamase type ESBL/OXA, read-out: MIC): > 64 µg/mL | MIC (Acinetobacter baumannii; A. baumannii isolate CDC 274, β-lactamase type ESBL/OXA, read-out: MIC): 16 µg/mL | MIC (Acinetobacter baumannii; A. baumannii isolate CDC 275, β-lactamase type ESBL/OXA, read-out: MIC): > 64 µg/mL | MIC (Acinetobacter baumannii; A. baumannii isolate CDC 277, β-lactamase type ESBL/OXA, read-out: MIC): 16 µg/mL | MIC (Acinetobacter baumannii; A. baumannii isolate CDC 284, β-lactamase type ESBL/OXA, read-out: MIC): 32 µg/mL | MIC (Acinetobacter baumannii; A. baumannii isolate CDC 307, β-lactamase type OXA, read-out: MIC): > 64 µg/mL | MIC (Acinetobacter baumannii; A. baumannii isolate CDC 308, β-lactamase type ESBL/OXA, read-out: MIC): > 64 µg/mL | MIC (Acinetobacter baumannii; A. baumannii isolate CDC 311, β-lactamase type OXA, read-out: MIC): > 64 µg/mL | MIC (Acinetobacter baumannii; A. baumannii isolate CDC 312, β-lactamase type OXA, read-out: MIC): 1 µg/mL | MIC (Acinetobacter baumannii; A. baumannii isolate CDC 313, β-lactamase type ESBL/OXA, read-out: MIC): 4 µg/mL | MIC (Acinetobacter baumannii; NCTC13304, A. baumannii isolate NCTC 13304, β-lactamase type OXA, read-out: MIC): 0.5 µg/mL | MIC ([1]; Escherichia coli, ATCC25922, E. coli ATCC 25922, read-out: MIC): 1 µg/mL | MIC ([1]; Escherichia coli, ATCC35218, E. coli ATCC 35218, read-out: MIC): 1 µg/mL | MIC ([1]; Klebsiella pneumoniae, ATCCBAA1705, K. pneumoniae ATCC BAA-1705, read-out: MIC): 16 µg/mL | MIC ([1]; Pseudomonas aeruginosa, ATCC27853, P. aeruginosa ATCC 27853, read-out: MIC): 2 µg/mL
SMILES: NCC[C@H](O)C(=O)N[C@@H]1C[C@H](N)[C@@H](O[C@H]2O[C@H](CN)[C@@H](O)[C@H](O)[C@H]2O)[C@H](O)[C@H]1O[C@H]1O[C@H](CO)[C@@H](O)[C@H](N)[C@H]1O [Amikacin]

SMILES: CCC[C@@H]1C[C@@H](C(=O)N[C@@H]([C@H]2O[C@H](SC)[C@H](O)[C@@H](O)[C@H]2O)[C@H](C)Cl)N(C)C1 [CLI]
MIC ([1]; S. aureus ATCC 29213): 0.25 µg/mL

SMILES: CC(S)C(C)S.[Bi] (centres unmarked) [MB-6, bismuth-2,3-butanedithiol]
MIC (Escherichia coli; [2]): 1 µg/mL | MIC (Escherichia coli; E. coli MMX 5755, ESBL): 2 µg/mL | MIC (Escherichia coli; E. coli MMX 5756, ESBL): 1 µg/mL | MIC (Klebsiella pneumoniae; [3]): 4 µg/mL | MIC (Klebsiella pneumoniae; K. pneumoniae MMX 9029, ESBL): 2 µg/mL | MIC (Pseudomonas aeruginosa; [4]): 8 µg/mL | MIC (Acinetobacter baumannii; A. baumannii isolate CDC 273, β-lactamase type ESBL/OXA): 0.5 µg/mL | MIC (Acinetobacter baumannii; A. baumannii isolate CDC 274, β-lactamase type ESBL/OXA): 0.5 µg/mL | MIC (Acinetobacter baumannii; A. baumannii isolate CDC 275, β-lactamase type ESBL/OXA): 0.5 µg/mL | MIC (Acinetobacter baumannii; A. baumannii isolate CDC 277, β-lactamase type ESBL/OXA): 1 µg/mL | MIC (Acinetobacter baumannii; A. baumannii isolate CDC 284, β-lactamase type ESBL/OXA): 1 µg/mL | MIC (Acinetobacter baumannii; A. baumannii isolate CDC 307, β-lactamase type OXA): 0.5 µg/mL | MIC (Acinetobacter baumannii; A. baumannii isolate CDC 308, β-lactamase type ESBL/OXA): 0.5 µg/mL | MIC (Acinetobacter baumannii; A. baumannii isolate CDC 311, β-lactamase type OXA): 0.5 µg/mL | MIC (Acinetobacter baumannii; A. baumannii isolate CDC 312, β-lactamase type OXA): 0.5 µg/mL | MIC (Acinetobacter baumannii; A. baumannii isolate CDC 313, β-lactamase type ESBL/OXA): 0.5 µg/mL | MIC (Acinetobacter baumannii; NCTC13304, A. baumannii isolate NCTC 13304, β-lactamase type OXA): 0.5 µg/mL
